How the values were obtained:
P. berghei ANKA strain = experiment: animal or person; format: in vivo; settings: for average survival time of all mice receiving the compound: over both experiments, artemether: combination therapy groups
Description: Nearly all of the two-carbon linked dimer analogs were evaluated in Plasmodium berghei infected mice using a 60-day survival study. Each trioxane (0.64 mg) and mefloquine hydrochloride (1.92 mg) were dissolved in 100 μL of 7:3 Tween:EtOH mixture, and the mixture was further diluted with 965 μL of water (total volume of 1065 μL). Twenty-four hours after infection with P. berghei ANKA strain (2×10^7 parasitized erythrocytes), each of four 5-week old C57BL/6J mice (Jackson Laboratory, weighing approximately 20 g each) received 200 μL of the trioxane solution via oral gavage, corresponding to a dose of 6 mg/kg of trioxane and 18 mg/kg of mefloquine hydrochloride. Blood parasitemia levels and duration of animal survival as compared to survival time of animals receiving no drug were monitored, both being widely accepted measures of a drug's antimalarial efficacy.
A second mouse experiment was initiated to further evaluate several of the lead compounds. An alternative adjuvant to establish a broader understanding of the efficacy of these compounds also was evaluated. […] As summarized in Table 2, all of the lead compounds outperformed the drug artemether (4b), which prolonged survival to an average of 38.5 days and 19.0 days in combination with mefloquine and lumefantrine, respectively. One mouse receiving dimer methyl oxime Z-29 and mefloquine died early in the experiment (day 16) while the other three lived to day 60, an average of 49.0 days. Dimer methyl oxime Z-29 was, however, was marginally effective in combination with lumefantrine (26.3 day average) and not effective as a monotherapy, with an average survival time (8.3 days) similar to that of infected mice receiving no drug (8.8 days). Dimer allyl oxime 30 was efficacious in all three groups, extending survival time to 49.0 days, 41.3 days, and 46.8 days in combination with mefloquine, lumefantrine, or as a monotherapy, respectively. […] One mouse receiving mefloquine combination died at an extended time point (35 days) while the other three survived the entire 60 days, an average of 53.8 days. All four mice receiving lumefantrine combination survived the entire 60 days. […] The monotherapy dose prolonged survival time to 46.8 days, similar to that of dimer allyl oxime 30.

P388 leukemia = settings: NCI Report, tested on 25 Oct. 1983; cited from earlier work
[1] = tested on: cell line panels consisting of 60 lines (nine disease-related subpanels); settings: 60 cell lines; cited from earlier work
[2] = Table 2, trioxane 6 mg/kg + mefloquine 18 mg/kg
[3] = Table 1, trioxane 6 mg/kg + Mef-HCl 18 mg/kg, single oral dose
[4] = Table 1, trioxane 6 mg/kg + Mef-HCl 18 mg/kg, determined on day 3 post infection
[5] = Table 2, trioxane 6 mg/kg + lumefantrine 18 mg/kg
[6] = Table 2, trioxane 150 mg/kg, adjuvant none (monotherapy)
[7] = first experiment, trioxane 6 mg/kg + mefloquine hydrochloride 18 mg/kg, four mice

Row | SMILES | % parasitemia suppression (P. berghei ANKA strain; [2]) [%] | survival after infection avg (P. berghei ANKA strain; [2]) [days] | survival after infection avg (P. berghei ANKA strain; [3]) [days] | % parasitemia suppression (P. berghei ANKA strain; [4]) [%] | also measured
1 | CO/N=C(\C[C@H]1O[C@H](OC)[C@@]23OC(C)C2C(C)C[C@H]3[C@H]1C)[C@H]1O[C@H](OC)[C@@]23OC(C)C2C(C)C[C@H]3[C@H]1C (stereo partly drawn) [E-29, Dimer O-Methyl Oxime] | >99.9 | 37.0 | – | – | –
2 | CO/N=C(/C[C@H]1O[C@H](OC)[C@@]23OC(C)C2C(C)C[C@H]3[C@H]1C)[C@H]1O[C@H](OC)[C@@]23OC(C)C2C(C)C[C@H]3[C@H]1C (stereo partly drawn) [Z-29, Dimer O-Methyl Oxime] | >99.9 | 49.0 | 60.0 | >99.9 | inhibition in vivo at 150 mg/kg (P. berghei ANKA strain; Plasmodium berghei, in Mus musculus, po, Table 2, trioxane 150 mg/kg, adjuvant none (monotherapy), read-out: % parasitemia suppression): 98%; % parasitemia suppression (P. berghei ANKA strain; [5]): >99.9%; survival after infection avg (P. berghei ANKA strain; [5]): 26.3 days; survival after infection avg (P. berghei ANKA strain; [6]): 8.3 days; cure of mice (P. berghei ANKA strain; [7]): complete cures of all four mice
3 | CO[C@H]1O[C@@H]2O[C@@]3(C)CC[C@H]4[C@H](C)CC[C@@H]([C@H]1C)[C@@]24OO3 [artemether (4b), artemether, reference compound] | >99.9 | 38.5 | 40.0 | >99.9 | % parasitemia suppression (P. berghei ANKA strain; [5]): >99.9%; survival after infection avg (P. berghei ANKA strain; [5]): 19.0 days; average survival time of all mice receiving the compound (P. berghei ANKA strain): 31.7 days
4 | C[C@@H]1CC[C@H]2[C@@H](C)C(=O)O[C@@H]3O[C@@]4(C)CC[C@@H]1[C@]32OO4 [artemisinin] | – | – | – | – | activity against P388 leukemia (P388 leukemia): inactive; anticancer activity [1]: modest anticancer activity
5 | C[C@H]1[C@@H](C(=O)C[C@H]2O[C@@H]3O[C@]4(C)CC[C@H]5[C@H](C)CC[C@@H]([C@H]2C)[C@@]35OO4)O[C@@H]2O[C@]3(C)CC[C@H]4[C@H](C)CC[C@@H]1[C@@]24OO3 [compound 24, Artemisinin Two-Carbon Linked Dimer Ketone] | – | – | 48.3 | >99.9 | –
6 | CO[C@H]1O[C@H](/C(C[C@H]2O[C@H](OC)[C@@]34OC(C)C3C(C)C[C@H]4[C@H]2C)=N\O)[C@H](C)[C@@H]2CC(C)C3C(C)O[C@@]312 (stereo partly drawn) [compound 28, Dimer Oxime] | – | – | 52.5 | >99.9 | –
7 | C[C@H]1[C@@H](/C(C[C@H]2O[C@@H]3O[C@@]4(C)CC[C@H]5[C@H](C)CC[C@@H]([C@H]2C)[C@@]35OO4)=N\OCC2CC2)O[C@@H]2O[C@@]3(C)CC[C@H]4[C@H](C)CC[C@@H]1[C@@]24OO3 [compound 31, dimer O-methylcyclopropyl oxime] | >99.9 | 41 | – | – | –
8 | C[C@H]1[C@@H](/C(C[C@H]2O[C@@H]3O[C@@]4(C)CC[C@H]5[C@H](C)CC[C@@H]([C@H]2C)[C@@]35OO4)=N\OC(C)(C)C)O[C@@H]2O[C@@]3(C)CC[C@H]4[C@H](C)CC[C@@H]1[C@@]24OO3 [compound 33, dimer tert-butyl oxime] | >99.9 | 23.8 | – | – | –
9 | C#CCO/N=C(/C[C@H]1O[C@@H]2O[C@@]3(C)CC[C@H]4[C@H](C)CC[C@@H]([C@H]1C)[C@@]24OO3)[C@H]1O[C@@H]2O[C@@]3(C)CC[C@H]4[C@H](C)CC[C@@H]([C@H]1C)[C@@]24OO3 [compound 34, dimer propargyl oxime] | >99.9 | 53.8 | 60.0 | >99.9 | inhibition in vivo at 6 mg/kg (P. berghei ANKA strain; Plasmodium berghei, in Mus musculus, po, Table 2, as printed: trioxane 6 mg/kg, adjuvant none, dose 18, read-out: % parasitemia suppression): > 99.9%; survival after infection avg (P. berghei ANKA strain; Table 2, as printed: trioxane 6 mg/kg, adjuvant none, dose 18): 46.8 days; % parasitemia suppression (P. berghei ANKA strain; [5]): >99.9%; survival after infection avg (P. berghei ANKA strain; [5]): 60.0 days; survival after infection (P. berghei ANKA strain; Table 2, trioxane 6 mg/kg + lumefantrine 18 mg/kg, single oral dose): 60 days; survival after infection avg (P. berghei ANKA strain; [6]): 46.8 days; cure of mice (P. berghei ANKA strain; [7]): complete cures of all four mice; average survival time of all mice receiving the compound (P. berghei ANKA strain): 55.1 days; cure of mice (P. berghei ANKA strain; two separate experiments, in combination with two different adjuvants (mefloquine and lumefantrine)): complete cure
10 | C[C@H]1[C@@H](/C(C[C@H]2O[C@@H]3O[C@@]4(C)CC[C@H]5[C@H](C)CC[C@@H]([C@H]2C)[C@@]35OO4)=N\OC(=O)N(C)C)O[C@@H]2O[C@@]3(C)CC[C@H]4[C@H](C)CC[C@@H]1[C@@]24OO3 [compound 35, dimer oxime dimethylcarbamate] | – | – | 51.8 | >99.9 | –
11 | CC(=O)O/N=C(/C[C@H]1O[C@@H]2O[C@@]3(C)CC[C@H]4[C@H](C)CC[C@@H]([C@H]1C)[C@@]24OO3)[C@H]1O[C@@H]2O[C@@]3(C)CC[C@H]4[C@H](C)CC[C@@H]([C@H]1C)[C@@]24OO3 [compound 36, dimer oxime acetate] | – | – | 27.3 | >99.9 | –

From US9487538B2, “Two-carbon linked artemisinin-derived trioxane dimers” (THE JOHNS HOPKINS UNIVERSITY, priority 2013, dated 2016)
